Experimental data taken from patent publication US20230022880A1, “Antimicrobial Composition” (INSTITUTE OF TECHNOLOGY SLIGO, priority 2019, published 2023).

Test system: several species of micro-organisms (Candida spp, Pseudomonas spp, E. coli)
Assay: Well diffusion bioassay, zones of inhibition
Format: cell-based
Conditions: NaCl tested on its own
Experimental: Escherichia coli (NCIMB 8545), Staphylococcus aureus (NCIMB 9518) and Pseudomonas aeruginosa (NCIMB 8626) are grown on nutrient agar or in nutrient broth for 24 hrs at 37° C.
Candida albicans (NCIMB 3179) and Saccharomyces cerevisiae are grown on sabaroud dextrose agar or in sabaroud dextrose broth for 24 hrs at 37° C. […]
Bacterial growth is monitored by measuring the culture optical density (OD) in a spectrophotometer (Anthos 2010) at a wavelength of 620 nm.
The formulations were assessed for antimicrobial activity against several species of micro-organisms (several of which produce catalase; Candida spp, Pseudomonas spp, E. coli) using the well diffusion bioassay, results were obtained by measuring the zones of inhibition (n=3).
Agar plates are inoculated by swabbing overnight culture onto the plate surface. Plates are allowed to stand at room temperature for 15 minutes before use. Wells 8.2 mm diameter are bored into the surface of the agar. A 180 μl sample is placed into each well. The samples diffuse into the agar around the well and are assayed for an ability to produce a zone of inhibition. Plates are incubated for 24, 48 or 72 hrs and zones of inhibition are measured using an Autodata automatic zone reader. The diameter of zones, including the diameter of the well (8.2 mm), is recorded. […]

Compound: [Cl-].[Na+] [NaCl, sodium chloride]
- Antimicrobial activity: no discernible activity
